melting point [°C] | SMILES
123 to 125 | OCC1OC(n2ccnn2)C(O)C1O (stereo unspecified)
231 to 232 | O=C(Nc1cccnc1)N1CCN(c2nccc(-c3ccc(F)c(F)c3)n2)CC1
163 to 164 | CC(C(=O)O)c1ccc2c(c1)C(=O)Cc1c(Cl)cccc1S2 (stereo unspecified)
134 to 135 | COC(=O)c1ccccc1-c1nc(COc2ccc(COc3nn(-c4ccccc4)cc3C=O)cc2OC)c(C)o1
189 to 190 | CC(=O)c1ccc(S(=O)(=O)Nc2cc(C)on2)cc1
178 to 181 | O=C(O)COc1c(-c2cccc(Cl)c2)cc(C(=O)NCCCCCCc2ccccc2)cc1-c1cccc(Cl)c1
159 to 161 | CC(=O)Nc1ccc(N2CCN(Cc3ccccc3)CC2)cc1
125 to 127 | CN(C)c1ccc(-c2nc(Cl)c(C#N)n2Cc2ccccc2)cc1
224 to 226 | COc1ccc2cc(C(N)=O)ccc2c1
72.5 to 73.5 | C[C@H](CC(F)(F)F)C(=O)N1C(=O)O[C@@H](c2ccccc2)[C@H]1C
172 to 177 | CON=Cc1sc(-c2ccc(O)cc2C)c(C)c1-c1ccc(O)c(F)c1
202 to 203 | O=C(Nc1ccc(F)c(NS(=O)(=O)c2cccs2)c1)c1ccc(F)c(F)c1
168 | NC(=O)C1CN(Cc2ccccc2)CCN1 (stereo unspecified)
176 to 177 | COc1cc(CC(=O)O)ccc1OCc1nc(-c2ccccc2)oc1C
114 to 116 | CN1C(=O)CC[C@]2(C)c3ccc(-c4ccc(F)c(Cl)c4)cc3CC[C@@H]12
146 to 147 | CCCN(Cc1ccc(-c2ccccc2-c2nnn[nH]2)cc1)c1ncccc1C(=O)OC
192 to 194 | ON=Cc1cc(-c2ccc(O)cc2)c2occc2c1
181 to 182 | CCOC(=O)C1Cc2ccc(N(C)C)cc2NC1=O (stereo unspecified)
64 to 67 | COc1ccc2c(C(C)=O)noc2c1
125 to 128 | CCCCNC(=O)c1cccc(NC(=O)NS(=O)(=O)c2ccc(C)cc2)c1
130 to 131 | CS(=O)(=O)c1ccc(C2=C(c3cccc(F)c3)C(=O)OC23CC3)cc1
85 to 100 | COc1ccc2c(c1)CCC1=C2CCC2(C(C)C)C(=O)CCC12 (stereo unspecified)
128 to 129 | CSc1cccc(Oc2ncc(F)cc2C(=O)N[C@@H]2CCCC[C@H]2CO)c1 (relative stereo)

melting point [°C] | SMILES
198 to 200 | O=S(=O)(Nc1cccc(Br)c1)c1cc(S(=O)(=O)Nc2cccc(Br)c2)c2cc(O)ccc2c1
108 | CS(=O)(=O)N1CCN([C@@H](CNS(=O)(=O)c2ccc(OCc3ccc(C#N)cc3)cc2)C(=O)NO)CC1
121 to 123 | COc1ccc(Cn2c(C)nc3c(Cl)ncnc32)cc1
236 to 237 | COCCn1c(=O)[nH]c2ncc(-c3ccc(O)cc3)nc21
130 to 131 | CC(=O)c1ccc(CCNS(=O)(=O)c2ccc(Br)cc2)cc1
178 | Oc1ccc(Cc2noc3cc(O)ccc23)cc1
77 to 78 | COC(=O)c1ccc(CO)cc1O
127 to 128 | Cc1c(Cl)cccc1S(=O)(=O)n1c(CCCC(=O)O)cc2nc(Cl)ccc21
107 to 108 | CC(C)OCCNc1ccccc1C(=O)C(=O)OC(=O)C(=O)c1ccccc1NCCOC(C)C
83 to 85 | CN(C)Cc1ccc(CSCCNC(=S)NC(=O)c2ccccc2)o1
201 to 204 | O=C(O)COc1cccc2c1CCc1sc(SC(Cc3ccccc3)c3ccccc3)nc1-2 (stereo unspecified)
115 to 117 | CC(C)(C)NC(=O)c1ccncc1
> 250 | COc1ccc(CCNc2nc(O)c(NC(=O)c3ccco3)c(O)n2)cc1
172 to 174 | CCOC(=O)c1c(Cn2cncn2)nc2sc3cnccc3c2c1-c1ccc(OC)c(OC)c1
191 to 192 | CC(C)(O)c1c(F)ccc(-c2ccc3nc(-c4ccc(Cl)cc4)cn3c2)c1F
178 to 180 | CC(=O)c1c(SSc2c(C(C)=O)c3ccccc3n2C)n(C)c2ccccc12
93.7 to 95.1 | O=C(Nc1ccc(Cl)cc1)c1ccccc1Cl
28 | CCOC(=O)CCNC(=O)CCCCNC(=O)OC(C)(C)C
130 to 135 | Cc1cccnc1-c1ccccc1Nc1nc(Nc2ccc3c(c2)C(C)(C)CCC(=O)N3)ncc1Cl
217 | CC(C)c1ccccc1Sc1c(O)cc(-c2ccc(OCC(=O)O)cc2)oc1=O
71.8 to 72.5 | CCCCCCC(O)CCCCCCCCCCCOCC(O)CNCCO (stereo unspecified)
122 to 124 | CC(=O)OC1CCC2(C)C(CCC3=C4C(=O)CC(C(C)CCCN(C)C)C4(C)CCC32)C1 (stereo unspecified)
201 to 209 | Cc1c[nH]c2c1C(=O)CC(c1ccccc1Cl)C2 (stereo unspecified)

melting point [°C] | SMILES
84 to 87 | O=[N+]([O-])c1cc(Oc2ccccc2)ccc1OCc1ccccc1
132 to 135 | COc1ccc(C(c2ccc(F)cc2)C(c2ccc(OC)cc2)C(F)(F)F)cc1 (stereo unspecified)
129 to 131 | c1ccc(-c2ccc3c(CCN4CCCCC4)c(-c4ccccc4)[nH]c3c2)cc1
204 to 209 | CS(=O)(=O)NN(c1ccc([N+](=O)[O-])cc1N)S(=O)(=O)c1cccc(S(=O)(=O)F)c1
63 to 66 | Cc1cc(S(N)(=O)=O)n(C)n1
240 to 241 | CN1C(=O)C(C)(C)CCc2cc(C(=O)O)ccc21
211 to 213 | Cc1nc(-c2cccnc2)sc1-c1ccnc(Nc2cccc(CN)c2)n1
242 to 244 | CCCCc1nc(=O)c2cc(C=O)ccc2[nH]1
129 | COc1ccc(NCCCOc2ccc3cc(OCCCNc4ccc(OC)cc4)ccc3c2)cc1
111 to 112 | c1nnc(N2CCN(Cc3ccc4c(c3)OCO4)CC2)s1
219 to 221 | CCCc1nn(C)c(C(N)=O)c1NC(=O)c1cc2cccc(OCC)c2o1
117 to 118 | COc1ccc(C=Cc2nnc(C(F)(F)F)o2)cc1
245 to 250 | CN1CC(c2ccccc2)=C(O)C1=O
208 to 209 | CC(C)n1nc(-c2cc(-c3ccccc3)c(N)nc2-c2ccccc2)ccc1=O
144 | Cn1cncc1-c1cnc(-c2ccccc2)nc1
125 | CCS(=O)(=O)CCn1c(=N)sc2cc(C(F)(F)C(F)(F)F)ccc21
149 to 153 | CCn1c(CC(=O)O)ccc1C(=O)c1ccc(Cl)cc1
178 to 179 | O=C(NCCCCCCc1ccc(-c2ccc(=O)[nH]n2)cc1)c1cccnc1
249 to 251 | CS(=O)(=O)c1ccc(-c2nc(C(F)(F)F)[nH]c2-c2ccc(Cl)c(Cl)c2)cc1
195 to 197 | CSc1cc2c(cc1C(F)(F)F)N(C(=O)Nc1cccc(C(=O)Nc3cccnc3)c1)CC2
99.1 to 101 | CCOC(=O)N1CCN(CCNc2ncnc3c2sc2nc(-c4ccco4)c4c(c23)CC(C)(C)CC4)CC1
233 to 234 | Cc1ccc(-n2c3ccccc3c3cc(C(C#N)=C(C#N)C#N)ccc32)cc1
245 | CC(C)(C)C1=NN(c2ccc(C(=O)O)cc2)C(c2ccc([N+](=O)[O-])cc2)C1 (stereo unspecified)

SMILES | melting point [°C]
Fc1ccc(-c2[nH]cc(C3=CC4CCCCN4CC3)c2-c2ccncc2)cc1 (stereo unspecified) | 223 to 224
Cc1nc(C(=O)NN)c2n1-c1ccc(Cl)cc1C(c1ccccc1)NC2 (stereo unspecified) | 225 to 230

Reference: a melting point compilation (Tetko et al.; mined from patent text by program, amines drawn as free bases though some values may be those of a salt)
